Experimental data taken from patent US6818049B1, “Environmentally preferred fluids and fluid blends” (ExxonMobil Chemical Patents Inc., priority 1998, dated 2004).
Read-outs that look alike come from different tables or passages of the source. Marks after values point to notes of the source that are not given here.

Key:
[1] = reported literature data, cited from earlier work
Fluid solvent properties = conditions: for Viscosity: 20° C.
Description: One of ordinary skill in the art can readily determine the flash point of a fluid or blend (e.g., ASTM D92-78).
The evaporation rate should be suitable for the intended purpose. […] The fluid selected preferably will have a similar evaporation rate to the disadvantaged fluid being replaced, particularly in the case where a fluid blend is used and an acceptable evaporation profile is desired. It is convenient for the fluid selected to have an evaporation rate less than 12 times the evaporation rate of n-butyl acetate. Evaporation rates may also be given relative to n-butyl acetate at 1.0 (ASTM D3539-87). Ranges of evaporation rates important for different applications are 5-3, 3-2, 2-1, 1.0-0.3, 0.3-0.1, and <0.1, relative to n-butyl acetate at 1.0. The present invention is related to fluids and fluid blends that at least partially evaporate into the atmosphere during or after their application.

[2] = Stability to acid catalyst (pTSA) in acrylic solvent system, followed by gas chromatography; type: physicochemical; conditions: 0.5 wt % pTSA, 50° C.; for Wt. % of Solvent At One Week Decomposition Period / Wt. % of Solvent At Three Week Decomposition Period: nitrogen atmosphere, start = 100
Protocol: Acrylic solvent systems were prepared to test the stability of dimethyl carbonate to acid catalysts, which are commonly present in coating compositions. The formulations contained 29.9 wt % DMC, 28.7 wt % pentyl acetate, 20.2 wt % n-butyl acetate, 16.1 wt % n-butyl alcohol, 3.6 wt % methyl ethyl ketone, 1.5 wt % isopropyl alcohol. 2 wt % toluene as an internal standard. The latter materials were purchased from Aldrich Chemical Co.
Para toluene sulfonic acid (PTSA) was added to the above formulation (again, pTSA was purchased from Aldrich Chemical Co.), in the amount of 0.5 wt %. The solutions were sealed and placed in an oven at 50° C. under a nitrogen atmosphere. Samples were withdrawn at intervals for testing. The content of dimethyl carbonate was monitored over time by gas chromatographic analysis using an HP 5890 gas chromatograph. In a parallel experiment an equal amount of tert. Butyl acetate was used instead of DMC. The results are shown below in Table 8 (all percentages are by weight).

Description for in vivo: One way to measure the toxic effects of a chemical is to measure the dose-effect relationship; the dose is usually measured in mg of chemical per kg of body mass. This is typically done experimentally by administering the chemical to mice or rats at several doses in the lethal range and plotting the logarithm of the dose versus the percentage of the population killed by the chemical. The dose lethal to 50% of the test population is called the median lethal dose (LD50) and is typically used as a guide for the toxicity of a chemical. […] EU (European Union) uses a cutoff of >2,000 mg/kg.

SMILES | LD50 (in vivo) | Flash Point [1] | Boiling Temperature (Fluid solvent properties) | Evaporation Ratio to Butyl Acetate (Fluid solvent properties) | Specific Gravity (Fluid solvent properties) | Surface Tension (Fluid solvent properties) | Viscosity (Fluid solvent properties) | Wt. % of Solvent At One Week Decomposition Period [2] | Wt. % of Solvent At Three Week Decomposition Period [2] | further results
CC(C)=O [Acetone] | 5800 mg/kg | −20* ° C. | 56 °C | 18 | 0.792 | 22.3 dyn/cm | 0.33 cps |  |  | Hansen Solubility Parameter, H-Bouding (Fluid solvent properties): 3.4; Hansen Solubility Parameter, Nonpolar (Fluid solvent properties): 7.6; Hansen Solubility Parameter, Polar (Fluid solvent properties): 5.1; Hansen Solubility Parameter, Total (Fluid solvent properties): 9.2
CCCCOC(C)=O [Butyl Acetate] |  | 27 °C |  |  |  |  |  |  |  | 
COC(=O)OC [DMC, dimethyl carbonate] | 13000 mg/kg | +19 to +32* ° C. | 90 °C | 3.2 | 1.065 | 29 dyn/cm | 0.60 cps | 97.8 wt. % | 95.4 wt. % | Stability to acid catalysts (in words) [2]: more stable to acid catalysts than is t-butyl acetate
COC(=O)C(C)(C)C [MP, methyl pivalate] |  |  | 99 °C | 2.2 | 0.873 | 23.8 dyn/cm | 0.74 cps |  |  | Flash Point (Fluid solvent properties): 27.2 °C
COC(C)=O [methyl acetate] |  | ~−12 °C |  |  |  |  |  |  |  | Flash Point ([1]; listed as Methyl acetate): about −12 °C
CC(=O)OC(C)(C)C [t-butyl acetate] |  |  |  |  |  |  |  | 54.4 wt. % | 17.2 wt. % | 
